In PubChem BioAssay (NCI):
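Each compound was tested at five concentrations against cells in 96-well plates for 48 hours. The concentration for full growth arrest is given as TGI.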

Legend:
Assay in all cases: NCI tumour cell line growth inhibition, 48 h
786-0 renal = system: 786-0 renal
A498 renal = system: A498 renal
A549 NSCLC = system: A549 NSCLC
ACHN renal = system: ACHN renal
CAKI-1 renal = system: CAKI-1 renal
CCRF-CEM leukemia = system: CCRF-CEM leukemia
COLO 205 colon = system: COLO 205 colon
DLD-1 colon = system: DLD-1 colon
DMS 114 small cell lung = system: DMS 114 small cell lung
DMS 273 small cell lung = system: DMS 273 small cell lung
HCC-2998 colon = system: HCC-2998 colon
HCT-116 colon = system: HCT-116 colon
HCT-15 colon = system: HCT-15 colon
HL-60(TB) leukemia = system: HL-60(TB) leukemia
HOP-18 NSCLC = system: HOP-18 NSCLC
HOP-62 NSCLC = system: HOP-62 NSCLC
HOP-92 NSCLC = system: HOP-92 NSCLC
HT29 colon = system: HT29 colon
IGROV1 ovarian = system: IGROV1 ovarian
K-562 leukemia = system: K-562 leukemia
KM20L2 colon = system: KM20L2 colon
LOX IMVI melanoma = system: LOX IMVI melanoma
LXFL 529 NSCLC = system: LXFL 529 NSCLC
M14 melanoma = system: M14 melanoma
M19-MEL melanoma = system: M19-MEL melanoma
MALME-3M melanoma = system: MALME-3M melanoma
MOLT-4 leukemia = system: MOLT-4 leukemia
NCI-H226 lung = system: NCI-H226 lung
NCI-H23 lung = system: NCI-H23 lung
NCI-H460 lung = system: NCI-H460 lung
OVCAR-3 ovarian = system: OVCAR-3 ovarian
OVCAR-4 ovarian = system: OVCAR-4 ovarian
OVCAR-5 ovarian = system: OVCAR-5 ovarian
OVCAR-8 ovarian = system: OVCAR-8 ovarian
RPMI-8226 leukemia = system: RPMI-8226 leukemia
RXF-631 renal = system: RXF-631 renal
SF-268 CNS = system: SF-268 CNS
SF-295 CNS = system: SF-295 CNS
SK-MEL-28 melanoma = system: SK-MEL-28 melanoma
SK-MEL-5 melanoma = system: SK-MEL-5 melanoma
SK-OV-3 ovarian = system: SK-OV-3 ovarian
SN12C renal = system: SN12C renal
SNB-19 CNS = system: SNB-19 CNS
SR leukemia = system: SR leukemia
SW-620 colon = system: SW-620 colon
TK-10 renal = system: TK-10 renal
U251 CNS = system: U251 CNS
UACC-257 melanoma = system: UACC-257 melanoma
UACC-62 melanoma = system: UACC-62 melanoma
UO-31 renal = system: UO-31 renal
EKVX NSCLC = system: EKVX NSCLC
KM12 colon = system: KM12 colon
MCF7 breast = system: MCF7 breast
NCI-H522 lung = system: NCI-H522 lung
NCI/ADR-RES ovarian = system: NCI/ADR-RES ovarian
P388 leukemia = system: P388 leukemia
RXF 393 renal = system: RXF 393 renal
SF-539 CNS = system: SF-539 CNS
SK-MEL-2 melanoma = system: SK-MEL-2 melanoma
SN12K1 renal = system: SN12K1 renal
SNB-75 CNS = system: SNB-75 CNS
SNB-78 CNS = system: SNB-78 CNS
XF 498 CNS = system: XF 498 CNS

SMILES: Cc1ccc(S(=O)(=O)OCC23CCC(C4CC42)C2CC23)cc1 (configuration not stated)
- TGI (786-0 renal): > 100 µM
- TGI (A498 renal): > 100 µM
- TGI (A549 NSCLC): > 100 µM
- TGI (ACHN renal): > 100 µM
- TGI (CAKI-1 renal): > 100 µM
- TGI (CCRF-CEM leukemia): > 100 µM
- TGI (COLO 205 colon): > 100 µM
- TGI (DLD-1 colon): > 100 µM
- TGI (DMS 114 small cell lung): > 100 µM
- TGI (DMS 273 small cell lung): > 100 µM
- TGI (HCC-2998 colon): > 100 µM
- TGI (HCT-116 colon): > 100 µM
- TGI (HCT-15 colon): > 100 µM
- TGI (HL-60(TB) leukemia): 37.8 µM
- TGI (HOP-18 NSCLC): > 100 µM
- TGI (HOP-62 NSCLC): > 100 µM
- TGI (HOP-92 NSCLC): > 100 µM
- TGI (HT29 colon): > 100 µM
- TGI (IGROV1 ovarian): > 100 µM
- TGI (K-562 leukemia): > 100 µM
- TGI (KM20L2 colon): > 100 µM
- TGI (LOX IMVI melanoma): > 100 µM
- TGI (LXFL 529 NSCLC): > 100 µM
- TGI (M14 melanoma): > 100 µM
- TGI (M19-MEL melanoma): > 100 µM
- TGI (MALME-3M melanoma): > 100 µM
- TGI (MOLT-4 leukemia): > 100 µM
- TGI (NCI-H226 lung): > 100 µM
- TGI (NCI-H23 lung): > 100 µM
- TGI (NCI-H460 lung): > 100 µM
- TGI (OVCAR-3 ovarian): > 100 µM
- TGI (OVCAR-4 ovarian): > 100 µM
- TGI (OVCAR-5 ovarian): > 100 µM
- TGI (OVCAR-8 ovarian): > 100 µM
- TGI (RPMI-8226 leukemia): > 100 µM
- TGI (RXF-631 renal): > 100 µM
- TGI (SF-268 CNS): > 100 µM
- TGI (SF-295 CNS): > 100 µM
- TGI (SK-MEL-28 melanoma): > 100 µM
- TGI (SK-MEL-5 melanoma): > 100 µM
- TGI (SK-OV-3 ovarian): > 100 µM
- TGI (SN12C renal): > 100 µM
- TGI (SNB-19 CNS): > 100 µM
- TGI (SR leukemia): > 100 µM
- TGI (SW-620 colon): > 100 µM
- TGI (TK-10 renal): > 100 µM
- TGI (U251 CNS): > 100 µM
- TGI (UACC-257 melanoma): 89.1 µM
- TGI (UACC-62 melanoma): > 100 µM
- TGI (UO-31 renal): > 100 µM

SMILES: O=S(=O)(O)c1ccc(N=Nc2ccc(N=Nc3ccc(/C=C/c4ccc(N=[N+]([O-])c5ccc(/C=C/c6ccc(N=Nc7ccc(N=Nc8ccc(S(=O)(=O)O)cc8)c8ccccc78)cc6S(=O)(=O)O)c(S(=O)(=O)O)c5)cc4S(=O)(=O)O)c(S(=O)(=O)O)c3)c3ccccc23)cc1
- TGI (A498 renal): > 100 µM
- TGI (A549 NSCLC): > 100 µM
- TGI (CCRF-CEM leukemia): > 100 µM
- TGI (COLO 205 colon): > 100 µM
- TGI (DLD-1 colon): > 100 µM
- TGI (DMS 114 small cell lung): > 100 µM
- TGI (DMS 273 small cell lung): > 100 µM
- TGI (EKVX NSCLC): > 100 µM
- TGI (HCC-2998 colon): > 100 µM
- TGI (HCT-116 colon): > 100 µM
- TGI (HCT-15 colon): > 100 µM
- TGI (HL-60(TB) leukemia): > 100 µM
- TGI (HOP-18 NSCLC): > 100 µM
- TGI (HOP-62 NSCLC): > 100 µM
- TGI (HOP-92 NSCLC): > 100 µM
- TGI (HT29 colon): > 100 µM
- TGI (IGROV1 ovarian): > 100 µM
- TGI (K-562 leukemia): > 100 µM
- TGI (KM12 colon): > 100 µM
- TGI (KM20L2 colon): > 100 µM
- TGI (LOX IMVI melanoma): > 100 µM
- TGI (M19-MEL melanoma): > 100 µM
- TGI (MALME-3M melanoma): > 100 µM
- TGI (MCF7 breast): > 100 µM
- TGI (MOLT-4 leukemia): > 100 µM
- TGI (NCI-H226 lung): > 100 µM
- TGI (NCI-H23 lung): > 100 µM
- TGI (NCI-H460 lung): > 100 µM
- TGI (NCI-H522 lung): 99.7 µM
- TGI (NCI/ADR-RES ovarian): > 100 µM
- TGI (OVCAR-3 ovarian): > 100 µM
- TGI (OVCAR-4 ovarian): > 100 µM
- TGI (OVCAR-5 ovarian): > 100 µM
- TGI (OVCAR-8 ovarian): > 100 µM
- TGI (P388 leukemia): > 100 µM
- TGI (RPMI-8226 leukemia): > 100 µM
- TGI (RXF 393 renal): > 100 µM
- TGI (SF-268 CNS): > 100 µM
- TGI (SF-295 CNS): > 100 µM
- TGI (SF-539 CNS): > 100 µM
- TGI (SK-MEL-2 melanoma): > 100 µM
- TGI (SK-MEL-28 melanoma): > 100 µM
- TGI (SK-MEL-5 melanoma): > 100 µM
- TGI (SK-OV-3 ovarian): > 100 µM
- TGI (SN12C renal): > 100 µM
- TGI (SN12K1 renal): > 100 µM
- TGI (SNB-75 CNS): > 100 µM
- TGI (SNB-78 CNS): > 100 µM
- TGI (SW-620 colon): > 100 µM
- TGI (U251 CNS): > 100 µM
- TGI (UACC-257 melanoma): > 100 µM
- TGI (UACC-62 melanoma): > 100 µM
- TGI (UO-31 renal): > 100 µM
- TGI (XF 498 CNS): > 100 µM

SMILES: Cc1cccc(C)c1NC(=O)C(=O)CC(=O)CO
- TGI (786-0 renal): > 100 µM
- TGI (A498 renal): > 100 µM
- TGI (A549 NSCLC): > 100 µM
- TGI (ACHN renal): > 100 µM
- TGI (CAKI-1 renal): > 100 µM
- TGI (CCRF-CEM leukemia): > 100 µM
- TGI (COLO 205 colon): > 100 µM
- TGI (DLD-1 colon): > 100 µM
- TGI (DMS 114 small cell lung): > 100 µM
- TGI (DMS 273 small cell lung): > 100 µM
- TGI (EKVX NSCLC): > 100 µM
- TGI (HCC-2998 colon): > 100 µM
- TGI (HCT-116 colon): > 100 µM
- TGI (HCT-15 colon): > 100 µM
- TGI (HL-60(TB) leukemia): > 100 µM
- TGI (HOP-18 NSCLC): > 100 µM
- TGI (HOP-62 NSCLC): > 100 µM
- TGI (HOP-92 NSCLC): > 100 µM
- TGI (HT29 colon): > 100 µM
- TGI (IGROV1 ovarian): > 100 µM
- TGI (K-562 leukemia): > 100 µM
- TGI (KM12 colon): > 100 µM
- TGI (KM20L2 colon): > 100 µM
- TGI (LOX IMVI melanoma): > 100 µM
- TGI (LXFL 529 NSCLC): > 100 µM
- TGI (M14 melanoma): > 100 µM
- TGI (M19-MEL melanoma): > 100 µM
- TGI (MALME-3M melanoma): > 100 µM
- TGI (MOLT-4 leukemia): > 100 µM
- TGI (NCI-H226 lung): > 100 µM
- TGI (NCI-H23 lung): > 100 µM
- TGI (NCI-H460 lung): > 100 µM
- TGI (NCI-H522 lung): > 100 µM
- TGI (OVCAR-3 ovarian): > 100 µM
- TGI (OVCAR-4 ovarian): > 100 µM
- TGI (OVCAR-5 ovarian): > 100 µM
- TGI (OVCAR-8 ovarian): > 100 µM
- TGI (RPMI-8226 leukemia): > 100 µM
- TGI (RXF 393 renal): > 100 µM
- TGI (RXF-631 renal): > 100 µM
- TGI (SF-268 CNS): > 100 µM
- TGI (SF-295 CNS): > 100 µM
- TGI (SF-539 CNS): > 100 µM
- TGI (SK-MEL-2 melanoma): > 100 µM
- TGI (SK-MEL-28 melanoma): > 100 µM
- TGI (SK-MEL-5 melanoma): > 100 µM
- TGI (SK-OV-3 ovarian): > 100 µM
- TGI (SN12C renal): > 100 µM
- TGI (SNB-19 CNS): > 100 µM
- TGI (SNB-75 CNS): > 100 µM
- TGI (SNB-78 CNS): > 100 µM
- TGI (SR leukemia): > 100 µM
- TGI (SW-620 colon): > 100 µM
- TGI (TK-10 renal): > 100 µM
- TGI (U251 CNS): > 100 µM
- TGI (UACC-257 melanoma): > 100 µM
- TGI (UACC-62 melanoma): > 100 µM
- TGI (UO-31 renal): > 100 µM
